Several values for one entry are separate records, joined by “and”; a condition that tells them apart may be missing. Equal values may be shown once. Toxic doses and inconclusive results are not listed. The calls were made as follows: active = survival T/C of 150% or more; inactive = T/C below 125% in these data.
System: P388 leukemia ip, CD2F1 mice, survival T/C
Assay: NCI In Vivo Anticancer Drug Screen. Data for tumor model P388 Leukemia (intraperitoneal) in CD2F1 (CDF1) mice
Details: endpoint: median survival time, higher = longer survival
Outline: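 Mice carrying the transplanted tumor received test compound or vehicle. Survival was recorded in each group, and the value is the treated-group measurement divided by that of the vehicle-treated control group.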

[1] = dose: 50.0 mg/kg/injection, schedule: Q01DX005 (ip), vehicle: saline with Tween-80
[2] = dose: 100.0 mg/kg/injection, schedule: Q01DX005 (ip), vehicle: saline with Tween-80
[3] = dose: 200.0 mg/kg/injection, schedule: Q01DX005 (ip), vehicle: saline with Tween-80
[4] = dose: 50.0 mg/kg/injection, schedule: Q01DX005 (ip), vehicle: Klucel (hydroxypropylcellulose) (HPC)
[5] = dose: 100.0 mg/kg/injection, schedule: Q01DX005 (ip), vehicle: Klucel (hydroxypropylcellulose) (HPC)
[6] = dose: 200.0 mg/kg/injection, schedule: Q01DX005 (ip), vehicle: Klucel (hydroxypropylcellulose) (HPC)
[7] = dose: 50.0 mg/kg/injection, schedule: Q01DX009 (ip), vehicle: saline with Tween-80
[8] = dose: 100.0 mg/kg/injection, schedule: Q01DX009 (ip), vehicle: saline with Tween-80
[9] = dose: 200.0 mg/kg/injection, schedule: Q01DX009 (ip), vehicle: saline with Tween-80
[10] = dose: 100.0 mg/kg/injection, schedule: Q04DX003 (ip), vehicle: saline
[11] = dose: 200.0 mg/kg/injection, schedule: Q04DX003 (ip), vehicle: saline
[12] = dose: 60.0 mg/kg/injection, schedule: Q01DX005 (ip), vehicle: saline with Tween-80
[13] = dose: 120.0 mg/kg/injection, schedule: Q01DX005 (ip), vehicle: saline with Tween-80
[14] = dose: 240.0 mg/kg/injection, schedule: Q01DX005 (ip), vehicle: saline with Tween-80
[15] = dose: 100.0 mg/kg/injection, schedule: Q04DX002 (ip), vehicle: Klucel (hydroxypropylcellulose) (HPC)
[16] = dose: 400.0 mg/kg/injection, schedule: Q04DX002 (ip), vehicle: Klucel (hydroxypropylcellulose) (HPC)

Measured: T/C

Cn1nc2c(cc1=O)Cc1ccccc1-2
inactive: [1] 103 % of control | [2] 98 % of control | [3] 101 % of control

Cn1cc(Cl)n(C)c(=O)c1=O
inactive: dose: 6.25 mg/kg/injection, schedule: Q01DX001 (ip), vehicle: saline with Tween-80 104 % of control | dose: 12.5 mg/kg/injection, schedule: Q01DX001 (ip), vehicle: saline with Tween-80 104 % of control | dose: 25.0 mg/kg/injection, schedule: Q01DX001 (ip), vehicle: saline with Tween-80 118 % of control

S=C(S)n1nc(-c2ccccc2)c(N=Nc2ccc(Cl)cc2Cl)c1-c1ccccc1
inactive: [1] 94 % of control | [2] 89 % of control | [3] 89 % of control

COC(=O)/C=C(\C(=O)OC)C1=C(N2CCCC2)CC(C)(C)CC1=O
inactive: [4] 102 % of control | [5] 100 % of control and 95 % of control | [6] 100 % of control and 101 % of control

CC(C)CC(NCCC#N)C(=O)O (centres undefined)
inactive: [4] 105 % of control | [5] 105 % of control | [6] 108 % of control

Cc1noc2nc(-c3ccccc3)cc(N3CCN(C)CC3)c12
inactive: dose: 12.5 mg/kg/injection, schedule: Q01DX005 (ip), vehicle: other 107 % of control | dose: 25.0 mg/kg/injection, schedule: Q01DX005 (ip), vehicle: other 97 % of control | dose: 50.0 mg/kg/injection, schedule: Q01DX005 (ip), vehicle: other 97 % of control | dose: 100.0 mg/kg/injection, schedule: Q01DX005 (ip), vehicle: other 101 % of control | dose: 200.0 mg/kg/injection, schedule: Q01DX005 (ip), vehicle: other 104 % of control

COc1cc(C(=O)NC2CC2)cc(OC)c1OC
inactive: dose: 25.0 mg/kg/injection, schedule: Q01DX009 (ip), vehicle: saline with Tween-80 101 % of control | [7] 104 % of control | [8] 107 % of control | [9] 110 % of control

Cc1c2oc3c(C)ccc(C(=O)NC(C(=O)NC(C(=O)NN)C(C)C)C(C)O)c3nc-2c(C(=O)NC(C(=O)NC(C(=O)NN)C(C)C)C(C)O)c(N)c1=O (centres undefined)
inactive: dose: 0.05 mg/kg/injection, schedule: Q01DX009 (ip), vehicle: water 106 % of control | dose: 0.1 mg/kg/injection, schedule: Q01DX009 (ip), vehicle: water 107 % of control | dose: 0.2 mg/kg/injection, schedule: Q01DX009 (ip), vehicle: water 97 % of control | dose: 0.4 mg/kg/injection, schedule: Q01DX009 (ip), vehicle: water 101 % of control | dose: 0.8 mg/kg/injection, schedule: Q01DX009 (ip), vehicle: water 101 % of control | dose: 1.6 mg/kg/injection, schedule: Q01DX009 (ip), vehicle: water 108 % of control and 110 % of control | dose: 3.2 mg/kg/injection, schedule: Q01DX009 (ip), vehicle: water 99 % of control | dose: 6.4 mg/kg/injection, schedule: Q01DX009 (ip), vehicle: water 99 % of control | dose: 12.8 mg/kg/injection, schedule: Q01DX009 (ip), vehicle: water 97 % of control

CCOC(/C=C/c1ccccc1)OCC
inactive: [10] 104 % of control | [11] 104 % of control

Cc1cc(=O)c2c(N(C)C)cccc2[nH]1
inactive: dose: 50.0 mg/kg/injection, schedule: Q01DX009 (ip), vehicle: acid diluted with saline 104 % of control | dose: 100.0 mg/kg/injection, schedule: Q01DX009 (ip), vehicle: acid diluted with saline 91 % of control | dose: 200.0 mg/kg/injection, schedule: Q01DX009 (ip), vehicle: acid diluted with saline 96 % of control

CNc1ncnc2c1cnn2C
inactive: [7] 95 % of control | [10] 104 % of control | [11] 109 % of control

CCO/C=C1/N=C(COc2ccc(Cl)cc2C)OC1=O
inactive: [12] 101 % of control | [13] 108 % of control | [14] 95 % of control

O=C(c1ccccc1)C12CCC(CC1)C2
inactive: dose: 50.0 mg/kg/injection, schedule: Q01DX009 (ip), vehicle: Klucel (hydroxypropylcellulose) (HPC) 103 % of control | dose: 100.0 mg/kg/injection, schedule: Q01DX009 (ip), vehicle: Klucel (hydroxypropylcellulose) (HPC) 103 % of control | dose: 200.0 mg/kg/injection, schedule: Q01DX009 (ip), vehicle: Klucel (hydroxypropylcellulose) (HPC) 110 % of control

COc1nc(NC2OC(CO)C(O)C(O)C2O)c(Cl)c(=O)n1C (centres undefined)
inactive: [12] 94 % of control | [13] 93 % of control | [14] 97 % of control

O=C1N(c2cccc(F)c2)C(=O)N1c1cccc(F)c1
inactive: [7] 115 % of control | [8] 100 % of control | [9] 98 % of control

COc1ccccc1NC(=O)C1=C(C)NC(C)=C(C(=O)Nc2ccccc2OC)C1c1ccc(OC)c(OC)c1
inactive: [12] 103 % of control | [13] 99 % of control | [14] 94 % of control

Cc1cc(C)c2nc(C)c(C)[n+]([O-])c2c1
inactive: [1] 101 % of control | [2] 100 % of control | [3] 100 % of control

Cc1cc(/C=C2/OC(=O)c3ccccc32)cc(C(C)(C)C)c1O
inactive: dose: 100.0 mg/kg/injection, schedule: Q04DX002 (ip), vehicle: saline 101 % of control | dose: 200.0 mg/kg/injection, schedule: Q04DX002 (ip), vehicle: saline 99 % of control | dose: 400.0 mg/kg/injection, schedule: Q04DX002 (ip), vehicle: saline 101 % of control

CC(CO)CCC(O)C(C)(O)C1CCC2(O)C3=CC(=O)C4CC(O)C(O)CC4(C)C3CCC12C (centres undefined)
inactive: dose: 1.25 mg/kg/injection, schedule: Q01DX005 (ip), vehicle: Klucel (hydroxypropylcellulose) (HPC) 102 % of control | dose: 2.5 mg/kg/injection, schedule: Q01DX005 (ip), vehicle: Klucel (hydroxypropylcellulose) (HPC) 97 % of control | dose: 5.0 mg/kg/injection, schedule: Q01DX005 (ip), vehicle: Klucel (hydroxypropylcellulose) (HPC) 98 % of control | dose: 10.0 mg/kg/injection, schedule: Q01DX005 (ip), vehicle: Klucel (hydroxypropylcellulose) (HPC) 100 % of control | dose: 20.0 mg/kg/injection, schedule: Q01DX005 (ip), vehicle: Klucel (hydroxypropylcellulose) (HPC) 100 % of control | dose: 40.0 mg/kg/injection, schedule: Q01DX005 (ip), vehicle: Klucel (hydroxypropylcellulose) (HPC) 100 % of control | dose: 80.0 mg/kg/injection, schedule: Q01DX005 (ip), vehicle: Klucel (hydroxypropylcellulose) (HPC) 98 % of control

O=c1c2c([nH]c(=S)n1-c1ccccc1)NCCC2
inactive: dose: 50.0 mg/kg/injection, schedule: Q04DX003 (ip), vehicle: Klucel (hydroxypropylcellulose) (HPC) 101 % of control | dose: 100.0 mg/kg/injection, schedule: Q04DX003 (ip), vehicle: Klucel (hydroxypropylcellulose) (HPC) 101 % of control | dose: 200.0 mg/kg/injection, schedule: Q04DX003 (ip), vehicle: Klucel (hydroxypropylcellulose) (HPC) 111 % of control

C/C=C(\C)C(C)(C#N)Nc1ccccc1 (centres undefined)
inactive: [9] 90 % of control

N#CC(OC(=O)c1cccc(C(=O)OC(C#N)(C(F)(F)F)C(F)(F)F)c1Sc1ccccc1)(C(F)(F)F)C(F)(F)F
inactive: [15] 109 % of control | [16] 115 % of control

c1ccc(-c2nnc3sc4ccccc4n23)cc1
inactive: dose: 60.0 mg/kg/injection, schedule: Q01DX005 (ip), vehicle: Klucel (hydroxypropylcellulose) (HPC) 105 % of control | dose: 120.0 mg/kg/injection, schedule: Q01DX005 (ip), vehicle: Klucel (hydroxypropylcellulose) (HPC) 96 % of control | dose: 240.0 mg/kg/injection, schedule: Q01DX005 (ip), vehicle: Klucel (hydroxypropylcellulose) (HPC) 94 % of control

COC(=O)C(=O)c1c(C(=O)OC)nc2nnc(N)n2c1C1CC1
inactive: [12] 100 % of control | [13] 107 % of control | [14] 105 % of control

CC(=O)C1C(c2ccccc2)SC(c2ccccc2)CC1(C)O (centres undefined)
inactive: [15] 96 % of control | dose: 200.0 mg/kg/injection, schedule: Q04DX002 (ip), vehicle: Klucel (hydroxypropylcellulose) (HPC) 94 % of control | [16] 87 % of control

CN(/N=C\c1cc(Cl)cc(Cl)c1O)c1ccccc1[N+](=O)[O-]
inactive: [4] 101 % of control | [5] 95 % of control | [6] 101 % of control

Nc1nc(Cl)c2ncn(C3OC(CO)C(O)C3O)c2n1 (centres undefined)
inactive: [9] 98 % of control | dose: 400.0 mg/kg/injection, schedule: Q01DX009 (ip), vehicle: saline with Tween-80 100 % of control
